Reference: patent US20260108483A1, “METHODS AND COMPOSITIONS FOR PREVENTING THE PROGRESSION OF DIABETIC RETINOPATHY AND RELATED CONDITIONS” (Opus Genetics, Inc., priority 2023, published 2026)
Where a name gives a salt, the structure may show the parent alone.

Assay: Dynamic vapor sorption (DVS) analysis
Assay type: physicochemical

Q: With `CCCCCCCCC/C(=C\C1=C(C)C(=O)C(OC)=C(OC)C1=O)C(=O)O` [Compound 1 calcium salt] as the molecule, how does the “maximum water adsorption (DVS)” value (at 82% RH) read?
A: about 1.52%

Q: What about the “water retained at the end of the desorption branch (DVS)” value (end of desorption) of the same molecule?
A: 0.19%

Q: What about the “crystalline form of post-DVS sample (XRPD) versus pre-DVS sample” value (subsequent XRPD analysis after DVS) of the same molecule?
A: maintained the same crystalline form
